The values below are quoted from earlier work in patent publication US12303531B2, “Molecular complex assembly particles comprising bis-R1,R2-dithiocarbamate-metal complex and a ligand, method of preparation and use thereof” (priority 2018, dated 2025).

Turning to `CCN(CC)C(=S)[S-].CCN(CC)C(=S)[S-].[Cu+2]` [bis(diethyldithiocarbamate)copper(II)], the “solubility constant in water” value was “in the range of nanograms per litre”.
